Source: a melting point compilation (Tetko et al.; mined from patent text by program, amines drawn as free bases though some values may be those of a salt)

SMILES	melting point
CCOC(=O)c1c2n(c3cc(N4CCN(CC(C)=O)CC4)c(F)cc3c1=O)CS2	170 to 172 °C
O=C1Nc2ccccc2SC1c1ccc(F)cc1 (configuration not stated)	216 to 219 °C
CC(C)(C)c1cc(CCc2ccccc2NC(=O)NC2CCCCC2)cc(C(C)(C)C)c1O	198 to 200 °C
CC1=CC(COC(c2ccccc2)(c2ccccc2)c2ccccc2)OC1O (configuration not stated)	100 to 102 °C
COc1ccc2c(c1OC)CCN(CCc1ccc(NC(=O)c3cccc4c(=O)c5cccc(OC)c5[nH]c34)cc1)C2	235 to 237 °C
O=C(c1sc2c([N+](=O)[O-])c(O)c(O)cc2c1Cl)N1CCCCC1	254 to 256 °C
O=C(O)CN1C(=O)C(=Cc2ccc(OCCc3ccccc3)c(OCc3ccccc3)c2)SC1=S	198 to 201 °C
CC(=O)OC(C)c1ccc2occ(C#N)c(=O)c2c1 (configuration not stated)	148 to 149 °C
CC(C)(C)C(NC(=O)Nc1ccccc1F)NC(=O)c1ccc(Cl)cc1 (configuration not stated)	229 to 230 °C
CC(C)c1cc(O)cc2c1C(=O)N(CBr)S2(=O)=O	167 to 169 °C
O=P(Oc1ccc(Oc2ccccc2)cc1)(Oc1ccc(Oc2ccccc2)cc1)c1ccccc1	92 to 93 °C
Nc1ccccc1COc1ccn(-c2ccc(Cl)cc2)n1	81 to 83 °C
Cc1cc2c(cc1C(C)O)OCO2 (configuration not stated)	61 to 62 °C
CC(C)(CO)NC(=O)c1nn(-c2ccc(F)cc2F)c2c1C1CCC2C1 (configuration not stated)	142 to 144 °C
CCCC1(OC(C)=O)CCC2C3CCC4CC(=O)CC(C)C4(C)C3CCC21C (configuration not stated)	128 to 129 °C
CCCCCS(=O)(=O)NC(=O)/C=C/c1ccc(OCCOC2CC2)cc1Oc1ncc(C(F)(F)F)cc1Cl	105 to 106 °C
CC(=O)OC(n1cc(C#N)c(-c2cccc(Cl)c2Cl)c1)C(Cl)(Cl)Cl (configuration not stated)	111 to 113 °C
CCOC(=O)C(=CNc1sc(Cl)cc1C(=O)OC)C(=O)OCC	89.5 to 90.5 °C
COc1ccc(C)cc1NC(=O)Nc1ccc(N2CCN(C(=O)Nc3ccc(NC(C)=O)cc3Cl)CC2)cc1	155 to 157 °C

SMILES	melting point
O=C1c2ccccc2C(=O)N1CCCCCCCCOc1cccc2ccccc12	63 to 64 °C
O=C(C=C1c2ccccc2-c2ccccc21)NCCCCCC(=O)NO	174 to 176 °C
CC(=CC(=O)Nc1ccccc1OCCCC(=O)O)c1ccc2c(ccn2C(c2ccccc2)c2ccccc2)c1	158 to 162 °C
CCCCSc1c[nH]nc1C1=CCCN(C)C1	120 to 121 °C
CCc1cc2cc(CC(=O)O)c(Cl)c(Cl)c2s1	179 to 181 °C
CCOCCN(C(=O)Nc1ccc(C(=O)O)cc1)c1ccc2c(c1)C(C)(C)CCC2(C)C	82 to 85 °C
CONS(=O)(=O)c1cc(Cl)c(Cl)cc1Cl	163 to 166 °C
CC(C)(C)OC(=O)N(CCN)CCN(CCN)C(=O)OC(C)(C)C	81 to 82 °C
CCCC1CCC(C2CCC3(CC2)C(=O)C2(CCC(C4CCC(CCC)CC4)CC2)C3=O)CC1 (configuration not stated)	290 °C
CC(C)CC(CO)(CO)CC(C)C	75 to 77 °C
N#CC1=C(C2CCCCCC2)Nc2n[nH]cc2C1c1ccccc1Cl (configuration not stated)	146 °C
N#CC(C(=O)Nc1ccon1)C(=O)c1nn(-c2ccccc2)c2c1CSc1ccccc1-2 (configuration not stated)	228 to 230 °C
c1coc(C2Nc3ccccc3N3CCc4cccc2c43)c1 (configuration not stated)	141 to 144 °C
CCCCCOc1ccc(-c2ccc(-c3ccccc3CC)cc2)cc1	62 to 65 °C
CN1C2C=C(c3cc4ccccc4s3)CC1CCC2 (configuration not stated)	91.3 to 93.5 °C
CN1C(=O)COC(c2cccc(Cl)c2)c2cc(C(O)(c3ccc(Cl)cc3)c3cncn3C)ccc21 (configuration not stated)	160 °C
CCCN1C(=O)C(=O)c2cc(SCCCc3ccc(C(=O)O)cc3)ccc21	140 to 142 °C
CC(=S)Nc1ccc[nH]1	93 to 94 °C
OC(CN1CCC(c2c[nH]c3ccccc23)CC1)C1COc2ccccc2O1 (configuration not stated)	145 °C

SMILES	melting point
Cc1cc2c(s1)c(=O)c(S(C)=O)cn2C (configuration not stated)	263 to 264 °C
O=CC=CC(=C(c1ccc(F)cc1)c1ccc(F)cc1)n1nnnc1-c1ccccc1	198 to 200 °C
O=C(O)C(=O)c1ccc(OCC(=O)N2CCN(c3ccccc3)CC2)cc1	188 to 192 °C
O=C(O)C1=C(C(=O)Nc2ccc(Cl)cc2F)CCCC1	91 to 93 °C
COc1cc(C)c(C(=O)c2c(Cl)cccc2Cl)c(OC(=O)Cc2ccccc2)c1OC	106 °C
CC1(c2cn(-c3c(Cl)cc(C(F)(F)F)cc3Cl)nc2C#N)CC1(Br)Br (configuration not stated)	133 to 134 °C
Nc1ccc(-c2ccc(-c3ccc(N)cc3)o2)cc1	213 to 216 °C
CS(=O)(=O)OCCCCCc1ccc(OCc2coc(/C=C/c3ccccc3)n2)cc1	105 to 106 °C
O=C(CCS)NC1(C(=O)O)CCCC1	127 to 128 °C
CCCCOc1cc(/C=C(\OC)C(=O)O)ccc1CCCc1ccc(OS(=O)(=O)CCCC)c(OC)c1	72.5 °C
O=[N+]([O-])c1cc(C(F)F)cc2nc(C(F)(F)F)[nH]c12	132 to 134 °C
O=C(c1ccc(F)cc1)c1ccc(C(c2ccc(C(=O)c3ccc(F)cc3)cc2)(C(F)(F)F)C(F)(F)F)cc1	142 to 143 °C
Nc1ccc(S(=O)C2=CCCCC2)cc1[N+](=O)[O-] (configuration not stated)	139 to 140 °C
O=C(O)c1cn(C2CCCC2)c2c(F)c(F)c(F)cc2c1=O	206 to 207 °C
Nc1n[nH]c2nc(N3CCOCC3)cc(-c3ccccc3)c12	178 to 180 °C
CNC(=O)Nc1snc(S(C)=O)c1C#N (configuration not stated)	241 °C
CCOC(CCP(=O)(OCC)OCC)(C(=O)c1ccccc1)c1ccccc1 (configuration not stated)	75 °C
CC(C)CNC(=O)N(CCCl)N=O	51 °C
c1ccc(-c2nc3ccccc3s2)nc1	133 to 134 °C

Next, values leading:

melting point	SMILES
190 to 195 °C	OCc1nc2n(n1)-c1ccccc1N(c1ccc(Cl)cc1)C2
304 to 306 °C	O=C1Nc2ccc(Cl)cc2C1c1ncnc2c1cnn2C1CCCC1 (configuration not stated)
120 to 121 °C	CCNc1cc2c(cc1Cl)CCN(C)C[C@@H]2c1ccccc1
88 to 90 °C	COC(=O)c1ccc(OCC(O)COc2ccc(Cl)cc2)cc1 (configuration not stated)
118 to 119 °C	CCC(=O)NCC1CC1c1cccc2nc(C)nn12 (configuration not stated)
147 to 148 °C	NC(=O)C1CCc2cc(S(=O)(=O)Cl)ccc2O1 (configuration not stated)
125 °C	CCN(CC)S(=O)(=O)c1cc2c(c(C(=O)NCc3ccccc3)c1)OCCO2
275 to 278 °C	CC(=O)c1ccc2c(c1)ncn2-c1cccc(-c2cnc(N)nc2)c1
93 to 94 °C	CCOC(=O)c1cnc2sccc2c1Sc1nnc(C)s1
100 to 104 °C	O=C1C(CCO)Oc2ccccc2N1Cc1cccc2ccccc12 (configuration not stated)
82 to 86 °C	O=[N+]([O-])c1ccc(F)cc1CO
236 °C	CN(C)C=Nc1nc2c(nnn2C2CC(O)C(CO)O2)c(=O)[nH]1 (configuration not stated)
149 to 150 °C	Cc1ccc(S(=O)(=O)OC[C@H]2OC(=O)N[C@H]2Cc2ccccc2)cc1
136 to 138 °C	CC(C)(C)C1(C)C(=O)N=C2c3ccccc3C(=O)N21 (configuration not stated)
139 to 140 °C	CNC(=S)NCCS(=O)Cc1cncn1C (configuration not stated)
124 to 125 °C	CC(C)(C)c1cc(-c2csc(CNC(=O)Cc3ccccc3)n2)cc(C(C)(C)C)c1O
247 to 248 °C	O=C(Nc1cc(-c2c(-c3ccc(F)cc3)nc3cccnn23)ccn1)c1ccc(Cl)nc1
169 to 171 °C	COc1cc(OC)nc(NC(=O)NS(=O)(=O)c2ccccc2CCCl)n1
166 to 168 °C	Cc1nn(C)c2nc(C(C)C)c(CO)c(-c3ccc(F)cc3)c12
165 to 169 °C	COC(=O)c1cc(OCc2c(C)cccc2C)c2nc(C)n(C)c2c1
70 to 73 °C	CC(C)(c1ccccc1)C(S)C(=O)O (configuration not stated)
128 to 130 °C	CCOC(=O)CNC(=O)Nc1c(-c2ccccc2OC)c2ccccc2c(=O)n1C
187 to 189 °C	CCC1(c2ccccc2)Cc2cc(OCC(=O)O)c(Cl)c(Cl)c2C1=O (configuration not stated)

melting point	SMILES
143 to 144 °C	CC(C)(C)OC(=O)Nc1cccc(-c2noc(CCC(=O)O)n2)c1
137 to 139 °C	CCNC(=O)c1c([Si](C)(C)C)ccc(SC)c1Cl
78 to 80 °C	CC(=O)OCC(C)(C)C(=O)N(O)Cc1ccccc1Cl
205 to 206 °C	Cc1ccc2oc(=O)n(-c3ccnc(NC(=O)NCc4ccccn4)c3)c2c1
168 to 170 °C	OCc1cn(-c2cccc3cccnc23)cn1
107 to 109 °C	C=CCC(C(=O)NCC#CCN(C)C)(c1ccccc1)c1ccccc1
189 to 191 °C	CCOC(=O)c1c(OCN2C(=O)c3c(C(C)C)cc(OC)cc3S2(=O)=O)nc2ncccn2c1=O
319 to 322 °C	CS(=O)(=O)Nc1ccc2ncn3c(=O)c(C(=O)O)cnc3c2c1
251 to 254 °C	CCCc1nc2c(N)nc3ccc(-c4ccc(NC(C)=O)cc4)cc3c2s1
> 310 °C	N#Cc1ccc(-c2nc3c(C(N)=O)cccc3[nH]2)cc1
169 to 172 °C	NC(=O)N[C@@H]1CCC[C@@H](O)c2sccc21 (relative stereo)
71 to 73 °C	COc1ccc2c(c1)C(CCCNC(C)=O)CCC2 (configuration not stated)
185 °C	COC(=O)C1CC(O)CN1C(=O)c1ccc2c(c1)OCCO2 (configuration not stated)
242 °C	CCOc1cc(C(C)C)ccc1C1CCN(CCCCNC(=O)c2ccc(NC(=O)c3ccc(Cl)cc3)cc2)CC1
151 to 152 °C	O=C(CCc1nnc(-c2ccc3c(c2)CCO3)o1)c1cccs1
105 to 106 °C	Cn1cccc1CCNCC(O)COc1cccc2[nH]ccc12 (configuration not stated)
192 to 195 °C	COC(=O)CCC(=O)c1ccc(NC(=O)c2ccc(C)cc2)cc1
265 to 267 °C	Cc1noc([C@@H]2CSCc3c(O)cc(O)c(C)c3C(=O)OC[C@@H](O)C(=O)N2)n1
79 °C	O=S1CCON=C1c1cccc(F)c1 (configuration not stated)
262 to 265 °C	Cc1ccc(S(=O)(=O)NC(=O)C(C)(N)C(C)C)cc1 (configuration not stated)
240 to 241 °C	Nc1nc(-c2ccc(CNC(=O)c3cccnc3)s2)cs1
93 to 95 °C	O=[N+]([O-])c1cc(NCCO)ccc1NCC(F)(F)F
